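Following 48 hours of exposure in 96-well plates, responses at five concentrations were used to interpolate endpoints linearly. GI50 = concentration required for 50% inhibition of growth.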 The source made the active and inactive calls. No stated cut-off is given here; in the data, active = GI50 up to about 1.1 µM and inactive = higher.
What was measured:
Assay in all cases: growth of human tumour cells (NCI), 48 h
HOP-62 = tested on: HOP-62
HCT-116 = tested on: HCT-116
UO-31 = tested on: UO-31
U-251 = tested on: U-251
786-0 = tested on: 786-0
HCT-15 = tested on: HCT-15
KM12 = tested on: KM12
OVCAR-4 = tested on: OVCAR-4
CCRF-CEM = tested on: CCRF-CEM
SF-295 = tested on: SF-295
SNB-19 = tested on: SNB-19
OVCAR-3 = tested on: OVCAR-3
UACC-62 = tested on: UACC-62
M14 = tested on: M14
COLO 205 = tested on: COLO 205
SW-620 = tested on: SW-620
EKVX = tested on: EKVX
K562 = tested on: K562
CAKI-1 = tested on: CAKI-1
NCI-H226 = tested on: NCI-H226
RXF 393 = tested on: RXF 393
HL-60 = tested on: HL-60
DU-145 = tested on: DU-145
OVCAR-8 = tested on: OVCAR-8
OVCAR-5 = tested on: OVCAR-5
MCF7 = tested on: MCF7
NCI-H23 = tested on: NCI-H23
T47D = tested on: T47D
LOX IMVI = tested on: LOX IMVI
A498 = tested on: A498
Malme-3M = tested on: Malme-3M
SK-OV-3 = tested on: SK-OV-3
BT-549 = tested on: BT-549
SK-MEL-2 = tested on: SK-MEL-2
MDA-MB-231 = tested on: MDA-MB-231
RPMI-8226 = tested on: RPMI-8226
PC-3 = tested on: PC-3
MDA-MB-435 = tested on: MDA-MB-435
MOLT-4 = tested on: MOLT-4
MDA-N = tested on: MDA-N
SK-MEL-5 = tested on: SK-MEL-5
ACHN = tested on: ACHN
HT-29 = tested on: HT-29
NCI/ADR-RES = tested on: NCI/ADR-RES
Hs-578T = tested on: Hs-578T
SR = tested on: SR
NCI-H522 = tested on: NCI-H522
TK-10 = tested on: TK-10
A549 = tested on: A549
SNB-75 = tested on: SNB-75
UACC-257 = tested on: UACC-257
SF-539 = tested on: SF-539
IGROV-1 = tested on: IGROV-1
SK-MEL-28 = tested on: SK-MEL-28
SN12C = tested on: SN12C
NCI-H460 = tested on: NCI-H460
HCC 2998 = tested on: HCC 2998
SF-268 = tested on: SF-268
HOP-92 = tested on: HOP-92

Measured: GI50

C[N+]1(C)C2CC(OC(=O)C(CO)c3ccccc3)CC1C1OC12 (configuration not stated)
> 100 µM: HCT-15
inactive: HOP-62 > 100 µM | HCT-116 > 100 µM | UO-31 > 100 µM | U-251 > 100 µM | 786-0 > 100 µM | KM12 > 100 µM | OVCAR-4 > 100 µM | CCRF-CEM > 100 µM | SF-295 > 100 µM | SNB-19 > 100 µM | OVCAR-3 > 100 µM | UACC-62 > 100 µM | M14 > 100 µM | COLO 205 > 100 µM | SW-620 > 100 µM | EKVX > 100 µM | K562 > 100 µM | CAKI-1 > 100 µM | NCI-H226 > 100 µM | RXF 393 > 100 µM | HL-60 > 100 µM | DU-145 > 100 µM | OVCAR-8 > 100 µM | OVCAR-5 > 100 µM | MCF7 > 100 µM | NCI-H23 > 100 µM | T47D > 100 µM | LOX IMVI > 100 µM | A498 > 100 µM | Malme-3M > 100 µM | SK-OV-3 > 100 µM | BT-549 > 100 µM | SK-MEL-2 > 100 µM | MDA-MB-231 > 100 µM | RPMI-8226 > 100 µM | PC-3 > 100 µM | MDA-MB-435 > 100 µM | MOLT-4 > 100 µM | MDA-N > 100 µM | SK-MEL-5 > 100 µM | ACHN > 100 µM | HT-29 > 100 µM | NCI/ADR-RES > 100 µM | Hs-578T > 100 µM | SR > 100 µM | NCI-H522 > 100 µM | TK-10 > 100 µM | A549 > 100 µM | SNB-75 > 100 µM | UACC-257 > 100 µM | SF-539 > 100 µM | IGROV-1 > 100 µM | SK-MEL-28 > 100 µM | SN12C > 100 µM

Cc1cccc(NC(=S)Nc2cccc(Cl)c2)n1
> 100 µM: HCT-15
inactive: HOP-62 39.4 µM | HCT-116 > 100 µM | UO-31 > 100 µM | U-251 47.1 µM | NCI-H460 > 100 µM | 786-0 > 70.6 µM | KM12 > 100 µM | OVCAR-4 > 100 µM | CCRF-CEM > 100 µM | SF-295 32.1 µM | SNB-19 > 60.4 µM | OVCAR-3 > 100 µM | UACC-62 > 75.2 µM | M14 > 100 µM | COLO 205 > 100 µM | SW-620 > 100 µM | EKVX > 100 µM | K562 > 100 µM | CAKI-1 > 100 µM | NCI-H226 > 56.9 µM | RXF 393 29.7 µM | HL-60 > 100 µM | DU-145 > 100 µM | OVCAR-8 > 80.9 µM | OVCAR-5 > 100 µM | MCF7 > 100 µM | NCI-H23 > 100 µM | T47D > 100 µM | LOX IMVI > 100 µM | A498 > 70.3 µM | Malme-3M > 100 µM | SK-OV-3 41.9 µM | BT-549 > 100 µM | SK-MEL-2 > 72.8 µM | MDA-MB-231 > 100 µM | RPMI-8226 > 100 µM | PC-3 > 100 µM | MDA-MB-435 > 100 µM | MOLT-4 > 100 µM | MDA-N > 100 µM | HCC 2998 > 100 µM | SK-MEL-5 > 100 µM | ACHN > 100 µM | HT-29 > 100 µM | NCI/ADR-RES > 96.4 µM | SF-268 > 67.8 µM | Hs-578T > 65.3 µM | SR > 100 µM | NCI-H522 49.9 µM | TK-10 > 100 µM | A549 > 100 µM | SNB-75 > 54 µM | UACC-257 > 100 µM | SF-539 30.1 µM | IGROV-1 44.2 µM | SK-MEL-28 > 100 µM | SN12C > 100 µM

O=C(O)CCC(C(=O)O)N1C(=O)C2C3CCC(C3)C2C1=O (configuration not stated)
> 100 µM: HCT-15
inactive: HOP-62 > 100 µM | HCT-116 > 100 µM | U-251 > 100 µM | NCI-H460 > 100 µM | 786-0 > 100 µM | KM12 > 100 µM | OVCAR-4 > 100 µM | SF-295 > 100 µM | SNB-19 > 100 µM | OVCAR-3 > 100 µM | UACC-62 > 100 µM | M14 > 100 µM | COLO 205 > 100 µM | SW-620 > 100 µM | EKVX > 100 µM | K562 > 100 µM | CAKI-1 > 100 µM | NCI-H226 > 100 µM | RXF 393 > 100 µM | DU-145 > 100 µM | OVCAR-8 > 100 µM | OVCAR-5 > 100 µM | MCF7 > 100 µM | NCI-H23 > 100 µM | HOP-92 > 100 µM | T47D > 100 µM | LOX IMVI > 100 µM | A498 > 100 µM | Malme-3M > 100 µM | SK-OV-3 > 100 µM | BT-549 > 100 µM | SK-MEL-2 > 100 µM | MDA-MB-231 > 100 µM | RPMI-8226 > 100 µM | PC-3 > 100 µM | MDA-MB-435 > 100 µM | MOLT-4 > 100 µM | MDA-N > 100 µM | SK-MEL-5 > 100 µM | ACHN > 100 µM | HT-29 > 100 µM | NCI/ADR-RES > 100 µM | SF-268 > 100 µM | Hs-578T > 100 µM | SR > 100 µM | NCI-H522 > 100 µM | TK-10 > 100 µM | A549 > 100 µM | SNB-75 > 100 µM | UACC-257 > 100 µM | SF-539 > 100 µM | IGROV-1 > 100 µM | SK-MEL-28 > 100 µM | SN12C > 100 µM

O=P(Oc1ccccc1)(Oc1ccccc1)Oc1c[nH]c2ccccc12
12.8 µM: HCT-15
inactive: HOP-62 14.9 µM | HCT-116 15.2 µM | UO-31 5.33 µM | U-251 12.3 µM | NCI-H460 12.8 µM | 786-0 15.5 µM | KM12 19.4 µM | OVCAR-4 3.13 µM | SF-295 3.28 µM | SNB-19 13.1 µM | OVCAR-3 14.5 µM | UACC-62 8.97 µM | M14 11.3 µM | COLO 205 2.37 µM | SW-620 13.4 µM | K562 10.7 µM | CAKI-1 4.13 µM | NCI-H226 9.68 µM | RXF 393 13.7 µM | HL-60 21.7 µM | DU-145 36.6 µM | OVCAR-8 13.5 µM | MCF7 11 µM | NCI-H23 10.1 µM | HOP-92 1.57 µM | T47D 8.91 µM | LOX IMVI 14.6 µM | A498 14.1 µM | Malme-3M 16.2 µM | SK-OV-3 3.44 µM | BT-549 17 µM | SK-MEL-2 5.47 µM | MDA-MB-231 11.4 µM | MDA-MB-435 12.2 µM | MOLT-4 6.53 µM | MDA-N 11 µM | HCC 2998 1.95 µM | SK-MEL-5 11.3 µM | HT-29 6.07 µM | NCI/ADR-RES 3.45 µM | SF-268 11.1 µM | Hs-578T 13.3 µM | SR 25.4 µM | TK-10 12.1 µM | A549 11.1 µM | SNB-75 10.8 µM | UACC-257 8.55 µM | SF-539 11.4 µM | IGROV-1 4.07 µM | SK-MEL-28 12.7 µM | SN12C 11.6 µM
active: CCRF-CEM 0.141 µM | EKVX 0.296 µM | OVCAR-5 0.0449 µM | RPMI-8226 0.103 µM | PC-3 0.847 µM

CC12OC(=O)[C@@]3(O)CCC4C(C[C@H]5O[C@]56CC=CC(=O)[C@]46C)C45OC[C@H]6C(=O)O[C@@H]1C[C@@]6(C)[C@H](C4=O)C23O5 (some centres not stated)
inactive: HOP-62 2.57 µM | HCT-116 1.33 µM | U-251 1.99 µM | NCI-H460 1.94 µM | KM12 1.85 µM | OVCAR-4 2.01 µM | SF-295 4.25 µM | SNB-19 3.85 µM | M14 1.57 µM | EKVX 3.28 µM | CAKI-1 2.64 µM | NCI-H226 2.7 µM | DU-145 2.56 µM | OVCAR-5 3.34 µM | HOP-92 2.11 µM | T47D 1.36 µM | LOX IMVI 1.63 µM | Malme-3M 1.36 µM | SK-OV-3 5.53 µM | SK-MEL-2 3.01 µM | PC-3 3.13 µM | MDA-MB-435 1.42 µM | MDA-N 3.4 µM | HCC 2998 3.12 µM | SK-MEL-5 1.53 µM | ACHN 1.84 µM | HT-29 2.11 µM | NCI/ADR-RES 8.51 µM | Hs-578T 5.47 µM | A549 3.83 µM | SNB-75 6.79 µM | UACC-257 1.32 µM | IGROV-1 1.24 µM
active: 786-0 0.659 µM | CCRF-CEM 0.233 µM | OVCAR-3 0.676 µM | UACC-62 0.971 µM | COLO 205 0.601 µM | SW-620 0.671 µM | K562 0.53 µM | RXF 393 0.39 µM | HL-60 0.121 µM | OVCAR-8 0.955 µM | MCF7 0.578 µM | NCI-H23 0.746 µM | BT-549 0.818 µM | MDA-MB-231 0.885 µM | RPMI-8226 0.308 µM | MOLT-4 0.673 µM | SF-268 0.309 µM | SR 0.392 µM | NCI-H522 0.269 µM | TK-10 1 µM | SF-539 0.252 µM | SK-MEL-28 0.394 µM | SN12C 0.953 µM
0.977 µM: HCT-15
